“Also recorded” adds a separate entry of the source. Where two headings read alike, the source gives them in different places. Marks after values point to notes of the source that are not given here.
Assays:
6TM/E11 sites = 6TM/E11 sites (Mus musculus, UniProt P42866); assay type: binding; conditions: compared to 15
CD-1 mice [1] = experiment: Radiant heat tail flick analgesia assay; assay type: in vivo, mouse; conditions: for analgesic activity (in words): tail flick, doses as high as 10 mg/kg
MOR-1 (mu) = MOR-1 (mu) (Mus musculus, UniProt P42866); experiment: Competition binding against 125I-BNtxA in CHO cells stably expressing MOR-1
DOR-1 (delta) = DOR-1 (delta) (Mus musculus, UniProt P32300); experiment: Competition binding against 125I-BNtxA in CHO cells stably expressing DOR-1; conditions: for fold lower affinity for delta receptors: compared to 15
KOR-1 (kappa) = KOR-1 (kappa) (Mus musculus, UniProt P33534); experiment: Competition binding against 125I-BNtxA in CHO cells stably expressing KOR-1
[2] = cited from earlier work
knockout mouse = conditions: cited from earlier work
mice [3] = conditions: cited from earlier work
mice [4] = conditions: cited from earlier work; remark: listed apart in the source
mice [5] = conditions: cited from earlier work; remark: listed apart in the source
CD-1 mice [6] = conditions: cited from earlier work
mice [7] = experiment: Respiratory depression assay; assay type: in vivo, mouse; conditions: 15 2.5 mg/kg s.c., morphine 20 mg/kg s.c., about 4-fold analgesic ED50; n=5

With C=CCN1CC[C@]23c4c5ccc(O)c4O[C@H]2[C@H](NC(=O)c2cccc(OC)c2)CC[C@@]3(O)[C@H]1C5 [Compound 25, 17-Allyl-3,14β-dihydroxy-4,5α-epoxy-6β-[(3′-methoxy)benzamido]morphinan] as the compound, how does the “fold lower binding affinity for the 6TM/E11 site” value (shortened to “fold lower binding affinity”) (6TM/E11 sites) read?
The value was 10 fold.

And the “fold greater analgesic potency” value (CD-1 mice [1]; compared to 15)?
The value was “over 3 fold”.

What about the “analgesic activity (in words)” value (CD-1 mice [1]; s.c.) of the same compound?
Its value is “potent analgesic actions”.

And the “fold mu selectivity over delta” value (MOR-1 (mu); mu vs delta)?
The value was 100 fold.

Which results are given for C=CCN1CC[C@]23c4c5ccc(O)c4O[C@H]2[C@@H](NC(=O)c2cccc(I)c2)CC[C@@]3(O)[C@H]1C5 [Compound 16, 17-Allyl-3,14β-dihydroxy-4,5α-epoxy-6α-[(3′-iodo)benzamido]morphinan]?
fold lower affinity for delta receptors (DOR-1 (delta)): 3 fold; fold lower binding affinity for the 6TM/E11 site (6TM/E11 sites): 33 fold; fold lower affinity for kappa receptors (KOR-1 (kappa); compared to 15): 150 fold; fold higher ED50 / lower analgesic activity (CD-1 mice [1]; compared to 15): 10 fold; fold lower affinity for mu receptors (MOR-1 (mu); compared to 15): 23 fold

For CN1CC[C@]23c4c5ccc(O)c4O[C@H]2[C@H](NC(=O)c2cccc(I)c2)CC[C@@]3(O)[C@H]1C5 [Compound 14], which “analgesic activity (in words)” value (CD-1 mice [1]; s.c.) is on record?
Its value is “No analgesia could be detected”.

Which “analgesic activity (in words)” value (CD-1 mice [1]; s.c.) does the source give for C=CCN1CC[C@]23c4c5ccc(O)c4O[C@H]2[C@H](NC(=O)c2cccc(C(F)(F)F)c2)CC[C@@]3(O)[C@H]1C5 [Compound 24, 17-Allyl-3,14β-dihydroxy-4,5α-epoxy-6β-[(3′-trifluoromethyl)benzamido]morphinan] here?
The value was “potent analgesic actions”.

Which “rewarding behavior in the conditioned place preference assay (in words)” value [2] does the source give for O=C(N[C@@H]1CC[C@@]2(O)[C@H]3Cc4ccc(O)c5c4[C@@]2(CCN3CC2CC2)[C@H]1O5)c1cccc(I)c1 [Compound 1, 3-Iodobenzoylnaltrexamide] here?
Its value is “no observable”.

What about the “analgesic activity in E11 knockout mouse (in words)” value (knockout mouse; E11 knockout mouse, disruption of exon 11-associated variants ref 26) of the same compound?
The value was “without activity”.

What about the “analgesic activity in MOR-1/DOR-1/KOR-1 triple knockout mouse (in words)” value (knockout mouse; triple knockout mouse lacking traditional mu, delta and kappa1 receptors ref 26) of the same compound?
The value was “retained full analgesic activity”.

And the “respiratory depression (in words)” value (mice [3])?
The value was “no observable respiratory depression”.

And the “inhibition of gastrointestinal transit (in words)” value (mice [4])?
Its value is “limited inhibition of gastrointestinal transit”.

And the “physical dependence (in words)” value (mice [5])?
The value was “no observable”.

What about the “Tail flick analgesia ED50 mg/kg (95%CL)” value (CD-1 mice [6]; (95% confidence limits), values from the literature ref 26) of the same compound?
The value was 0.39 (0.15, 0.58) ^a mg/kg.

What about the “cross tolerance to morphine (in words)” value (CD-1 mice [6]) of the same compound?
The value was “no observable”.

And the “analgesic potency fold greater than morphine” value (CD-1 mice [6]; compared to morphine ref 26)?
Its value is 10 fold.

For C=CCN1CC[C@]23c4c5ccc(O)c4O[C@H]2[C@H](NC(=O)CCCCC)CC[C@@]3(O)[C@H]1C5 [Compound 34, 17-Allyl-3,14β-dihydroxy-4,5α-epoxy-6β-(hexylamido)morphinan], which Ki (KOR-1 (kappa)) is on record?
Its Ki is 9.15 ± 0.94 nM.

With C=CCN1CC[C@]23c4c5ccc(O)c4O[C@H]2[C@H](NC(=O)c2ccccc2I)CC[C@@]3(O)[C@H]1C5 [Compound 17, 17-Allyl-3,14β-dihydroxy-4,5α-epoxy-6β-[(2′-iodo)benzamido]morphinan] as the compound, how does the “fold lower affinity for delta receptors” value (DOR-1 (delta)) read?
The value was “approximately 10 fold”.

What about the “fold lower binding affinity” value (6TM/E11 sites) of the same compound?
The value was 100 fold.

And the “fold lower affinity for kappa receptors” value (KOR-1 (kappa); compared to 15)?
The value was “approximately 10 fold”.

And the “analgesic activity (in words)” value (CD-1 mice [1]; s.c.)?
Its value is “eliminated its analgesic activity”.

And the “fold lower affinity for mu receptors” value (MOR-1 (mu); compared to 15)?
The value was “approximately 10 fold”.

What does the source list for C=CCN1CC[C@]23c4c5ccc(O)c4O[C@H]2[C@H](NC(=O)c2cccc(I)c2)CC[C@@]3(O)[C@H]1C5 [Compound 15, 17-Allyl-3,14β-dihydroxy-4,5α-epoxy-6β-[(3′-iodo)benzamido]morphinan]?
fold lower affinity for kappa receptors (KOR-1 (kappa); compared to 1): about 2 fold; effect on respiratory rate (in words) (mice [7]): did not depress respiratory rate; also recorded: no respiratory depression; fold more potent an analgesic than morphine (CD-1 mice [1]; compared to morphine): 10 fold; fold lower affinity for mu receptors (MOR-1 (mu); compared to 1): about 2 fold

Which “effect on respiratory rate (in words)” value (mice [7]) does the source give for CN1CC[C@]23c4c5ccc(O)c4O[C@H]2[C@@H](O)C=C[C@H]3[C@H]1C5 [morphine, reference compound] here?
The value was “decreases respiratory depression”.

With C=CCN1CC[C@]23c4c5ccc(O)c4O[C@H]2[C@H](NC(=O)c2ccc(-c4ccccc4)cc2)CC[C@@]3(O)[C@H]1C5 [Compound 32, 17-Allyl-3,14β-dihydroxy-4,5α-epoxy-6β-[(4′-phenyl)benzamido]morphinan] as the compound, how does the “analgesic activity (in words)” value (CD-1 mice [1]; s.c.) read?
The value was “not analgesic”.

With O=C(NC1CCC2(O)C3Cc4ccc(O)c5c4C2(CCN3CC2CC2)C1O5)c1cccc(I)c1 (stereo not shown) [Compound 125IBNtxA, reference compound] as the compound, how does the Kd (DOR-1 (delta); read-out: 125IBNtxA KD DOR-1, radioligand KD) read?
The Kd was 0.24 nM.

What about the Kd (KOR-1 (kappa); read-out: 125IBNtxA KD KOR-1, radioligand KD) of the same compound?
Its Kd is 0.03 nM.

What about the Kd (MOR-1 (mu); read-out: 125IBNtxA KD MOR-1, radioligand KD) of the same compound?
The Kd was 0.11 nM.

For C=CCN1CC[C@]23c4c5ccc(O)c4O[C@H]2[C@H](NC(=O)c2ccccc2)CC[C@@]3(O)[C@H]1C5 [Compound 22, 17-Allyl-3,14β-dihydroxy-4,5α-epoxy-6β-(benzamido)morphinan], which “fold lower affinity for delta receptors” value (DOR-1 (delta)) is on record?
The value was about 25 fold.

What about the “fold lower binding affinity” value (6TM/E11 sites) of the same compound?
Its value is “over 20 fold”.

And the “fold lower affinity for kappa receptors” value (KOR-1 (kappa); compared to 15)?
The value was about 180 fold.

And the “fold lower affinity for mu receptors” value (MOR-1 (mu); compared to 15)?
The value was “about 20 fold”.

For “17-Allyl-3,14β-dihydroxy-4,5α-epoxy-6β-[2-adamantylamido]morphinan [Compound 37]”, which “Tail flick analgesia ED50 mg/kg (95%CL)” value (CD-1 mice [1]; s.c., CD-1 mice, radiant heat tail flick, (95% confidence limits)) is on record?
The value was over 10 mg/kg.
